Measurements published in article PMC5218480 (PLoS ONE, 2017).

System: MV-4-11 cells
Experiment: Gene expression microarray analysis (Affymetrix PrimeView) and GSEA
Type: cell-based, human
Parameters: RFU PODN (11730768_x_at) / Fold change /veh PODN (11730768_x_at) / RFU LINC00158 (11744669_a_at) / Fold change /veh LINC00158 (11744669_a_at) / RFU DUSP10 (11751237_a_at) / Fold change /veh DUSP10 (11751237_a_at) / RFU ID3 (11757404_x_at) / Fold change /veh ID3 (11757404_x_at) / RFU PLEKHG5 (11737974_s_at) / Fold change /veh PLEKHG5 (11737974_s_at) / RFU LRRC4B (11730491_at) / Fold change /veh LRRC4B (11730491_at) / RFU GIMAP4 (11747438_a_at) / Fold change /veh GIMAP4 (11747438_a_at) / RFU KRT8 (11758183_x_at) / Fold change /veh KRT8 (11758183_x_at) / RFU CNN1 (11734310_a_at) / Fold change /veh CNN1 (11734310_a_at) / RFU VPS37D (11726825_at) / Fold change /veh VPS37D (11726825_at) / RFU C10orf10 (11716522_x_at) / Fold change /veh C10orf10 (11716522_x_at) / RFU KIR2DL2 /// KIR2DL4 /// KIR2DL5A /// KIR2DL5B /// KIR2DS1 /// KIR2DS2 /// KIR2DS3 /// KIR2DS4 /// KIR3DL3 /// KIR3DL3 /// KIR3DS1 (11738374_at) / Fold change /veh KIR2DL2 /// KIR2DL4 /// KIR2DL5A /// KIR2DL5B /// KIR2DS1 /// KIR2DS2 /// KIR2DS3 /// KIR2DS4 /// KIR3DL3 /// KIR3DL3 /// KIR3DS1 (11738374_at) / RFU C1QL1 (11718748_at) / Fold change /veh C1QL1 (11718748_at) / RFU TMPRSS4 (11747572_a_at) / Fold change /veh TMPRSS4 (11747572_a_at) / RFU HAMP (11756126_x_at) / Fold change /veh HAMP (11756126_x_at) / RFU RNFT2 (11725882_a_at) / Fold change /veh RNFT2 (11725882_a_at) / RFU NR4A2 (11747474_a_at) / Fold change /veh NR4A2 (11747474_a_at) / RFU ABCC12 (11746883_a_at) / Fold change /veh ABCC12 (11746883_a_at) / RFU TMEM136 (11760407_x_at) / Fold change /veh TMEM136 (11760407_x_at) / RFU CLDN22 /// WWC2 (11732394_at) / Fold change /veh CLDN22 /// WWC2 (11732394_at) / RFU HLA-DPB1 (11760878_x_at) / Fold change /veh HLA-DPB1 (11760878_x_at) / RFU SPINT1 (11716480_a_at) / Fold change /veh SPINT1 (11716480_a_at) / RFU GAP43 (11754022_s_at) / Fold change /veh GAP43 (11754022_s_at) / RFU A4GNT (11735810_at) / Fold change /veh A4GNT (11735810_at) / RFU PRB3 (11715151_x_at) / Fold change /veh PRB3 (11715151_x_at) / RFU TUBB4B (11761932_at) / Fold change /veh TUBB4B (11761932_at) / RFU CAPN14 (11732068_a_at) / Fold change /veh CAPN14 (11732068_a_at) / RFU TMCC2 (11721928_a_at) / Fold change /veh TMCC2 (11721928_a_at) / RFU IRGQ (11745062_a_at) / Fold change /veh IRGQ (11745062_a_at) / RFU FAM174B (11720279_a_at) / Fold change /veh FAM174B (11720279_a_at) / RFU TMPRSS4 (11748680_a_at) / Fold change /veh TMPRSS4 (11748680_a_at) / RFU FAM212B (11763350_a_at) / Fold change /veh FAM212B (11763350_a_at) / RFU PLEKHG5 (11743358_a_at) / Fold change /veh PLEKHG5 (11743358_a_at) / RFU ZSCAN30 (11745921_a_at) / Fold change /veh ZSCAN30 (11745921_a_at) / RFU CMKLR1 (11741424_a_at) / Fold change /veh CMKLR1 (11741424_a_at) / RFU LOC101060620 /// MAPK8IP1 (11723275_at) / Fold change /veh LOC101060620 /// MAPK8IP1 (11723275_at) / RFU SPTSSB (11747773_x_at) / Fold change /veh SPTSSB (11747773_x_at) / RFU PRSS12 (11739890_at) / Fold change /veh PRSS12 (11739890_at) / RFU BIN1 (11741810_x_at) / Fold change /veh BIN1 (11741810_x_at) / RFU WNT11 (11732464_a_at) / Fold change /veh WNT11 (11732464_a_at) / RFU C10orf10 (11716521_a_at) / Fold change /veh C10orf10 (11716521_a_at) / RFU C5orf56 (11738089_at) / Fold change /veh C5orf56 (11738089_at) / RFU CYB561 (11721691_x_at) / Fold change /veh CYB561 (11721691_x_at) / RFU ANKRD19P (11752326_a_at) / Fold change /veh ANKRD19P (11752326_a_at) / RFU OR2T12 /// OR2T33 /// OR2T8 (11738714_s_at) / Fold change /veh OR2T12 /// OR2T33 /// OR2T8 (11738714_s_at) / RFU VCAN (11748164_a_at) / Fold change /veh VCAN (11748164_a_at) / RFU JSRP1 (11732532_at) / Fold change /veh JSRP1 (11732532_at) / RFU KRTAP10-11 (11738290_x_at) / Fold change /veh KRTAP10-11 (11738290_x_at) / RFU MYO3A (11730013_a_at) / Fold change /veh MYO3A (11730013_a_at) / RFU EBF3 (11725865_a_at) / Fold change /veh EBF3 (11725865_a_at) / RFU CAMK2N1 (11719241_x_at) / Fold change /veh CAMK2N1 (11719241_x_at) / RFU C5orf56 (11738088_a_at) / Fold change /veh C5orf56 (11738088_a_at) / RFU OLFML3 (11715873_a_at) / Fold change /veh OLFML3 (11715873_a_at) / RFU LOC100653217 /// NTM (11731650_a_at) / Fold change /veh LOC100653217 /// NTM (11731650_a_at) / RFU MAPK11 (11762145_a_at) / Fold change /veh MAPK11 (11762145_a_at) / RFU FIZ1 (11724087_x_at) / Fold change /veh FIZ1 (11724087_x_at) / RFU OASL (11726364_x_at) / Fold change /veh OASL (11726364_x_at) / RFU SOX15 (11748057_x_at) / Fold change /veh SOX15 (11748057_x_at) / RFU CD79A (11719716_a_at) / Fold change /veh CD79A (11719716_a_at) / RFU HIST1H1D (11736915_at) / Fold change /veh HIST1H1D (11736915_at) / RFU CASKIN2 (11723855_a_at) / Fold change /veh CASKIN2 (11723855_a_at) / RFU LOC730098 (11760151_x_at) / Fold change /veh LOC730098 (11760151_x_at) / RFU OR4N2 (11742367_at) / Fold change /veh OR4N2 (11742367_at) / RFU PRRT2 (11749266_a_at) / Fold change /veh PRRT2 (11749266_a_at) / RFU SNX32 (11753110_a_at) / Fold change /veh SNX32 (11753110_a_at) / RFU CDHR5 (11726645_a_at) / Fold change /veh CDHR5 (11726645_a_at) / RFU RCAN1 (11760418_a_at) / Fold change /veh RCAN1 (11760418_a_at) / RFU FAM167A (11723789_a_at) / Fold change /veh FAM167A (11723789_a_at) / RFU FAM26E (11764081_at) / Fold change /veh FAM26E (11764081_at) / RFU ISYNA1 (11749810_s_at) / Fold change /veh ISYNA1 (11749810_s_at) / RFU ACY1 (11761880_at) / Fold change /veh ACY1 (11761880_at) / RFU 11764098_at / Fold change /veh 11764098_at / RFU SAMD14 (11745864_x_at) / Fold change /veh SAMD14 (11745864_x_at) / RFU NPB (11741838_a_at) / Fold change /veh NPB (11741838_a_at) / RFU TMPRSS6 (11731388_a_at) / Fold change /veh TMPRSS6 (11731388_a_at) / RFU KRTAP10-2 (11738614_at) / Fold change /veh KRTAP10-2 (11738614_at) / RFU ARHGAP8 /// PRR5-ARHGAP8 (11727945_x_at) / Fold change /veh ARHGAP8 /// PRR5-ARHGAP8 (11727945_x_at) / RFU KRTAP5-7 /// NADSYN1 (11734609_at) / Fold change /veh KRTAP5-7 /// NADSYN1 (11734609_at) / RFU RASL12 (11751679_a_at) / Fold change /veh RASL12 (11751679_a_at) / RFU CDKN2B (11736163_a_at) / Fold change /veh CDKN2B (11736163_a_at) / RFU PRF1 (11729649_at) / Fold change /veh PRF1 (11729649_at) / RFU, ZNF638 /// ZNF638-IT1 / Fold change vs veh, ZNF638 /// ZNF638-IT1 / RFU, PANK3 / Fold change vs veh, PANK3 / RFU, SH3YL1 / Fold change vs veh, SH3YL1 / RFU, ZEB2 / Fold change vs veh, ZEB2 / RFU, NRIP1 / Fold change vs veh, NRIP1 / RFU, PTTG1IP / Fold change vs veh, PTTG1IP / RFU, CAPN2 / Fold change vs veh, CAPN2 / RFU, MED14 / Fold change vs veh, MED14 / RFU, SNORA58 / Fold change vs veh, SNORA58 / RFU, C1orf63 / Fold change vs veh, C1orf63 / RFU, LRRFIP1 / Fold change vs veh, LRRFIP1 / RFU, NDUFAF7 / Fold change vs veh, NDUFAF7 / RFU, SLC12A2 / Fold change vs veh, SLC12A2 / RFU, IBTK / Fold change vs veh, IBTK / RFU, ESF1 / Fold change vs veh, ESF1 / Fold change vs veh, TMEM50B / RFU, TAOK1 / Fold change vs veh, TAOK1 / RFU, ACBD3 / Fold change vs veh, ACBD3 / RFU, TMA16 / Fold change vs veh, TMA16 / RFU, RWDD3 / Fold change vs veh, RWDD3 / RFU, BCAT1 / Fold change vs veh, BCAT1 / RFU, EDEM3 / Fold change vs veh, EDEM3 / RFU, TMEM33 / Fold change vs veh, TMEM33 / RFU, WDR75 / Fold change vs veh, WDR75 / RFU, AHCTF1 / Fold change vs veh, AHCTF1 / RFU, TFRC / Fold change vs veh, TFRC / RFU, ZDHHC17 / Fold change vs veh, ZDHHC17 / RFU, NOM1 / Fold change vs veh, NOM1 / RFU, ARL8B / Fold change vs veh, ARL8B / RFU, ZBTB11 / Fold change vs veh, ZBTB11 / RFU, TAMM41 / Fold change vs veh, TAMM41 / RFU, KIAA1704 /// LOC100996395 / Fold change vs veh, KIAA1704 /// LOC100996395 / RFU, ING1 / Fold change vs veh, ING1 / RFU, TRMT61B / Fold change vs veh, TRMT61B / RFU, FUBP3 / Fold change vs veh, FUBP3 / RFU, TP53 / Fold change vs veh, TP53 / RFU, TNKS2 / Fold change vs veh, TNKS2 / RFU, ZFP14 / Fold change vs veh, ZFP14 / RFU, ACTR2 / Fold change vs veh, ACTR2 / RFU, PPP3R1 / Fold change vs veh, PPP3R1 / RFU, PIK3R1 / Fold change vs veh, PIK3R1 / RFU, HNRNPA1 / Fold change vs veh, HNRNPA1 / RFU, RNF170 / Fold change vs veh, RNF170 / RFU, ZNF28 / Fold change vs veh, ZNF28 / RFU, RNGTT / Fold change vs veh, RNGTT / RFU, OGT / Fold change vs veh, OGT / RFU, BRD1 / Fold change vs veh, BRD1 / RFU, MARS / Fold change vs veh, MARS / RFU, ZNF655 / Fold change vs veh, ZNF655 / RFU, FAHD1 / Fold change vs veh, FAHD1 / RFU, BDP1 / Fold change vs veh, BDP1 / RFU, LRRCC1 / Fold change vs veh, LRRCC1 / RFU, ARID1A / Fold change vs veh, ARID1A / RFU, ZNF146 / Fold change vs veh, ZNF146 / RFU, ZNF330 / Fold change vs veh, ZNF330 / RFU, GPN3 / Fold change vs veh, GPN3 / RFU, C9orf123 / Fold change vs veh, C9orf123 / RFU, N4BP2L2 / Fold change vs veh, N4BP2L2 / RFU, ARFIP1 / Fold change vs veh, ARFIP1 / RFU, FAM179B / Fold change vs veh, FAM179B / RFU, BCL10 / Fold change vs veh, BCL10 / RFU, UHRF1BP1L / Fold change vs veh, UHRF1BP1L / RFU, BET1 / Fold change vs veh, BET1 / RFU, CNOT2 / Fold change vs veh, CNOT2 / RFU, ZNF268 / Fold change vs veh, ZNF268 / Fold change vs veh, ZNF507 / RFU, DGCR2 / Fold change vs veh, DGCR2 / RFU, WDSUB1 / Fold change vs veh, WDSUB1 / Fold change vs veh, HSP90B1 /// MIR3652 / RFU, ADSS / Fold change vs veh, ADSS / RFU, GK / Fold change vs veh, GK / RFU, ZNF148 / Fold change vs veh, ZNF148 / RFU, TAF9 / Fold change vs veh, TAF9 / RFU, SLC1A5 / Fold change vs veh, SLC1A5 / RFU, SLMO2 / Fold change vs veh, SLMO2 / RFU, ABCC4 / Fold change vs veh, ABCC4 / RFU, LOC101060439 /// RAP1B / Fold change vs veh, LOC101060439 /// RAP1B / RFU, RFX7 / Fold change vs veh, RFX7 / RFU, GTPBP10 / Fold change vs veh, GTPBP10 / RFU, CNEP1R1 / Fold change vs veh, CNEP1R1 / RFU, BIVM-ERCC5 /// ERCC5 / Fold change vs veh, BIVM-ERCC5 /// ERCC5 / RFU, ILF3 / Fold change vs veh, ILF3 / RFU 11762660_at / Fold change /veh 11762660_at / RFU VCAN (11757783_s_at) / Fold change /veh VCAN (11757783_s_at) / RFU DDX43 (11728927_at) / Fold change /veh DDX43 (11728927_at) / RFU KRT8 (11758188_x_at) / Fold change /veh KRT8 (11758188_x_at) / RFU NKD1 (11759106_at) / Fold change /veh NKD1 (11759106_at) / RFU SRD5A1 (11742802_a_at) / Fold change /veh SRD5A1 (11742802_a_at) / RFU TPSAB1 /// TPSB2 (11721975_s_at) / Fold change /veh TPSAB1 /// TPSB2 (11721975_s_at) / RFU GSTM3 (11746129_a_at) / Fold change /veh GSTM3 (11746129_a_at) / RFU IL23R (11737362_x_at) / Fold change /veh IL23R (11737362_x_at) / RFU TMEM51 (11727254_a_at) / Fold change /veh TMEM51 (11727254_a_at) / RFU PIWIL2 (11732686_x_at) / Fold change /veh PIWIL2 (11732686_x_at) / RFU ORM1 (11744905_x_at) / Fold change /veh ORM1 (11744905_x_at) / RFU CCDC152 (11743942_at) / Fold change /veh CCDC152 (11743942_at) / RFU ECM1 (11717891_a_at) / Fold change /veh ECM1 (11717891_a_at) / RFU IL23R (11748794_a_at) / Fold change /veh IL23R (11748794_a_at) / RFU TNFAIP8L3 (11732012_x_at) / Fold change /veh TNFAIP8L3 (11732012_x_at) / RFU MBOAT4 (11741988_at) / Fold change /veh MBOAT4 (11741988_at) / RFU 11764193_at / Fold change /veh 11764193_at / RFU TMEM53 (11763286_at) / Fold change /veh TMEM53 (11763286_at) / RFU MAGEB2 (11727129_at) / Fold change /veh MAGEB2 (11727129_at) / RFU TMEM200A (11744735_a_at) / Fold change /veh TMEM200A (11744735_a_at) / RFU CCDC152 (11751479_a_at) / Fold change /veh CCDC152 (11751479_a_at) / RFU FAM211A (11726209_a_at) / Fold change /veh FAM211A (11726209_a_at) / RFU RGS16 (11746705_a_at) / Fold change /veh RGS16 (11746705_a_at) / RFU VCAN (11755009_s_at) / Fold change /veh VCAN (11755009_s_at) / RFU RHOB (11743442_s_at) / Fold change /veh RHOB (11743442_s_at) / RFU RGS16 (11720943_a_at) / Fold change /veh RGS16 (11720943_a_at) / RFU RGS16 (11720944_at) / Fold change /veh RGS16 (11720944_at) / RFU, VPS4B / Fold change vs veh, VPS4B / RFU, CREB1 / Fold change vs veh, CREB1 / RFU, DNAJC13 / Fold change vs veh, DNAJC13 / RFU, GNAQ / Fold change vs veh, GNAQ / RFU, CDK5R1 / Fold change vs veh, CDK5R1 / RFU, ZRANB3 / Fold change vs veh, ZRANB3 / RFU, CUL4A / Fold change vs veh, CUL4A / RFU, CCNY / Fold change vs veh, CCNY / RFU, UFL1 / Fold change vs veh, UFL1 / RFU, COG3 / Fold change vs veh, COG3 / RFU, DIAPH2 / Fold change vs veh, DIAPH2 / RFU, SKA2 / Fold change vs veh, SKA2 / RFU, AFF3 / Fold change vs veh, AFF3 / RFU, LMF1 / Fold change vs veh, LMF1 / RFU, IPO11 / Fold change vs veh, IPO11 / RFU, DFFB / Fold change vs veh, DFFB / RFU, FOXP1 / Fold change vs veh, FOXP1 / RFU, CARD8 / Fold change vs veh, CARD8 / RFU, STRN3 / Fold change vs veh, STRN3 / RFU, ADK / Fold change vs veh, ADK / RFU, RASSF2 / Fold change vs veh, RASSF2 / RFU, WIPF1 / Fold change vs veh, WIPF1 / RFU, LARP1B / Fold change vs veh, LARP1B / RFU, RASA1 / Fold change vs veh, RASA1 / RFU, RB1 / Fold change vs veh, RB1 / RFU, PPFIA1 / Fold change vs veh, PPFIA1 / RFU, MAT2A / Fold change vs veh, MAT2A / RFU, CCT5 / Fold change vs veh, CCT5 / RFU, WDR92 / Fold change vs veh, WDR92 / RFU, CUX1 / Fold change vs veh, CUX1 / RFU, TTC7A / Fold change vs veh, TTC7A / RFU, TMEM135 / Fold change vs veh, TMEM135 / RFU, DEPTOR / Fold change vs veh, DEPTOR / RFU, CPM / Fold change vs veh, CPM / RFU, DNAJB6 / Fold change vs veh, DNAJB6 / RFU, CACNA2D3 / Fold change vs veh, CACNA2D3 / RFU, DTX4 / Fold change vs veh, DTX4 / RFU, TFCP2 / Fold change vs veh, TFCP2 / RFU, GMCL1 /// GMCL1P1 / Fold change vs veh, GMCL1 /// GMCL1P1 / RFU, AEBP2 / Fold change vs veh, AEBP2 / RFU, SNHG1 /// SNORD22 /// SNORD25 /// SNORD26 /// SNORD27 /// SNORD28 /// SNORD29 /// SNORD31 / Fold change vs veh, SNHG1 /// SNORD22 /// SNORD25 /// SNORD26 /// SNORD27 /// SNORD28 /// SNORD29 /// SNORD31 / Fold change (Aza/veh), C12orf56 (ProbeSet 11735607_a_at) / Fold change (ACY-1035/veh), C12orf56 (ProbeSet 11735607_a_at) / Fold change (Aza/veh), FGFR1OP (ProbeSet 11751329_s_at) / Fold change (ACY-1035/veh), FGFR1OP (ProbeSet 11751329_s_at) / Fold change (Aza/veh), VPS36 (ProbeSet 11739960_a_at) / Fold change (ACY-1035/veh), VPS36 (ProbeSet 11739960_a_at) / RFU SYPL1 (11715823_x_at) / Fold change /veh SYPL1 (11715823_x_at) / RFU IGFBP7 (11715501_s_at) / Fold change /veh IGFBP7 (11715501_s_at) / RFU REEP3 (11722064_at) / Fold change /veh REEP3 (11722064_at) / RFU IGLL1 (11728026_x_at) / Fold change /veh IGLL1 (11728026_x_at): dose or concentration left out as unconfirmed
Conditions: ProbeSet 11717308_a_at; LIST B

With `Nc1ncn([C@@H]2O[C@H](CO)[C@@H](O)[C@H]2O)c(=O)n1` [azacitidine] the “RFU, WDR75” value was 348.11 RFU.
